# In patent EP1377579B1 (Aventis Pharmaceuticals Inc., priority 2000, dated 2002):
# Counter-ions that a name gives are not always drawn.
# Columns and labels:
# cdk4/cyclin D1 = cdk4/cyclin D1 (Homo sapiens, UniProt P11802); experiment: Cyclin-dependent kinase assay, cdk4/cyclin D1; format: biochemical; settings: cyclin D1/cdk4; GST-pRb substrate, 10 µM ATP
# MDA-MB-435 = experiment: In vitro proliferation assay (MTT), MDA-MB-435; format: cell-based, human; settings: Homo sapiens, MDA-MB-435, MTT assay; value (SD, n) where given; read-out: MB-435 Breast (IC50 µM)
# Outline: (§1)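 Tetrazolium (MTT) reduction measures live cells remaining after 3 days with test compound, following overnight attachment at 1000–2500 cells/well. Dye is taken up in DMSO and read at 570 nm.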
# PC-3 = experiment: In vitro proliferation assay (MTT), PC-3; format: cell-based, human; settings: Homo sapiens, PC-3, MTT assay; value (SD, n) where given; read-out: PC-3 Prostate (IC50 µM)
# Outline: as §1
# cdk1/cyclin B = cdk1/cyclin B (Homo sapiens, UniProt P06493); experiment: Cyclin-dependent kinase assay, cdk1/cyclin B; settings: CDK1 IC50, nM, Histone H1, 10 µM ATP
# Sequence of cdk1/cyclin B (P06493 whole entry): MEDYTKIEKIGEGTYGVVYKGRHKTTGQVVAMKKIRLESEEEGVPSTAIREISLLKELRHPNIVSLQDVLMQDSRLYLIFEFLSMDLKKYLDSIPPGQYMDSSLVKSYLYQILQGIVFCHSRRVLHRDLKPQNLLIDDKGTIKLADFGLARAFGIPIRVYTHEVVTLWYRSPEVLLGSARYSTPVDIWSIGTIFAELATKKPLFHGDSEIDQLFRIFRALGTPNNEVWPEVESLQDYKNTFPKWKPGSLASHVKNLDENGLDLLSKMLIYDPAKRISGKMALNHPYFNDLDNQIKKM
# Sequence of cdk1/cyclin B (P14635 whole entry partner): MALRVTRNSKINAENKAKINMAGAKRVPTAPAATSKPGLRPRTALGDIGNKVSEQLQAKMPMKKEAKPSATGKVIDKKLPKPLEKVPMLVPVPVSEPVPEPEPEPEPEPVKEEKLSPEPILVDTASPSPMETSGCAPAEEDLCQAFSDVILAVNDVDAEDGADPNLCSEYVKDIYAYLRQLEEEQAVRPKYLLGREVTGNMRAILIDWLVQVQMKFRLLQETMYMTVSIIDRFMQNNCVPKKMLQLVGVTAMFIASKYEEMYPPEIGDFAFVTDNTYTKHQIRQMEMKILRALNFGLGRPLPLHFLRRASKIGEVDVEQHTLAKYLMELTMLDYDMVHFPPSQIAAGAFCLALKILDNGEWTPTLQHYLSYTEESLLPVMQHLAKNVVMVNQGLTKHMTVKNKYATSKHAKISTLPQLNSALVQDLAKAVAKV
# cdk2/cyclin E = cdk2/cyclin E (Homo sapiens, UniProt P24941); experiment: Cyclin-dependent kinase assay, cdk2/cyclin E; settings: CDK2 IC50, nM, GST-pRb substrate, 10 µM ATP
# Sequence of cdk4/cyclin D1 (P11802 whole entry): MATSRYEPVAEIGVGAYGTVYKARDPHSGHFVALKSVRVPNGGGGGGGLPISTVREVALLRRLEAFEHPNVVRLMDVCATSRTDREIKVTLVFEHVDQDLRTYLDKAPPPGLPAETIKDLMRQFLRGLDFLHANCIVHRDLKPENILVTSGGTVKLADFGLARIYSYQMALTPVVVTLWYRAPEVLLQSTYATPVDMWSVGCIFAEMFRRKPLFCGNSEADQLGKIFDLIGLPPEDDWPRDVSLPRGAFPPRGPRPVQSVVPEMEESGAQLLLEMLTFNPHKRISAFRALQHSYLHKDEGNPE
# Sequence of cdk4/cyclin D1 (P24385 whole entry partner): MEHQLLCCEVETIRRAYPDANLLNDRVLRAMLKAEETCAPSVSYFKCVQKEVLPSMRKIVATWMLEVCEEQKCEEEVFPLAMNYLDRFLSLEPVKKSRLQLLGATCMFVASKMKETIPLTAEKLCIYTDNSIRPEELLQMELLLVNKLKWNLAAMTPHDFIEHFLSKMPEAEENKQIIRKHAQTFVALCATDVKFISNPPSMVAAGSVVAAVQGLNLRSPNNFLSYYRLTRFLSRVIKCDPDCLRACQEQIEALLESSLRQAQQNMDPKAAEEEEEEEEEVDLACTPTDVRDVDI
Compound,IC50 (cdk4/cyclin D1),IC50 (MDA-MB-435),IC50 (PC-3),IC50 (cdk1/cyclin B),IC50 (cdk2/cyclin E)
"CC(C)n1cnc2c(NC3CCN(S(=O)(=O)c4ccc(C#N)cc4)CC3)nc(N[C@H]3CC[C@H](N)CC3)nc21 [compound 145, trans-4-{4-[2-(4-Amino-cyclohexylamino)-9-isopropyl-9H-purin-6-ylamino]-piperidine-1-sulfonyl} -benzonitrile dihydrochloride]",8800 nM,4.12 µM,6.32 µM,21 nM,70 nM
"COc1ccc(NC(=O)N2CCC(Nc3nc(N[C@H]4CC[C@H](N)CC4)nc4c3ncn4C3CCCC3)CC2)c(OC)c1 [compound 151, trans-4-[2-(4-Amino-cyclohexylamino)-9-cyclopentyl-9H-purin-6-ylamino]-piperidine-1-carboxylic acid (2,4-dimethoxy-phenyl)-amide dihydrochloride]",391 nM,0.44 µM,0.5 µM,60 nM,32 nM
"COc1ccc(NC(=O)N2CCC(Nc3nc(N[C@H]4CC[C@H](N)CC4)nc4c3ncn4C3CCCC3)CC2)cc1 [compound 153, trans-4-[2-(4-Amino-cyclohexylamino)-9-cyclopentyl-9H-purin-6-ylamino]-piperidine-1-carboxylic acid (4-methoxy-phenyl)-amide dihydrochloride]",444 nM,0.38 µM,0.45 µM,20 nM,30 nM
"C=CCNC(=O)N1CCC(Nc2nc(N[C@H]3CC[C@H](N)CC3)nc3c2ncn3C2CCCC2)CC1 [compound 164, trans-4-[2-(4-Amino-cyclohexylamino)-9-cyclopentyl-9H-purin-6-ylamino]-piperidine-1-carboxylic acid allylamide dihydrochloride]",739 nM,5.03 µM,4.99 µM,151 nM,86 nM
"N[C@H]1CC[C@H](Nc2nc(NC3CCN(C(=O)Nc4ccc(Cl)cc4Cl)CC3)c3ncn(C4CCCC4)c3n2)CC1 [compound 167, trans-4-[2-(4-Amino-cyclohexylamino)-9-cyclopentyl-9H-purin-6-ylamino]-piperidine-1-carboxylic acid (2,4-dichloro-phenyl)-amide dihydrochloride]",63 nM,0.28 µM,0.38 µM,4 nM,54 nM
"CCOC(=O)NC(=O)N1CCC(Nc2nc(N[C@H]3CC[C@H](N)CC3)nc3c2ncn3C2CCCC2)CC1 [compound 173, trans-(1-{4-[2-(4-Amino-cyclohexylamino)-9-cyclopentyl-9H-purin-6-ylamino]-piperidin-1-yl}-methanoyl)-carbamic acid ethyl ester dihydrochloride]",424 nM,2.67 µM,2.81 µM,18 nM,30 nM
"N[C@H]1CC[C@H](Nc2nc(NC3CCN(C(=O)Nc4ccccc4OC(F)(F)F)CC3)c3ncn(C4CCCC4)c3n2)CC1 [compound 174, trans-4-[2-(4-Amino-cyclohexylamino)-9-cyclopentyl-9H-purin-6-ylamino]-piperidine-1-carboxylic acid (2-trifluoromethoxy-phenyl)-amide dihydrochloride]",795 nM,0.31 µM,0.27 µM,48 nM,89 nM

# Results, then the compound that gave them:
IC50 (cdk4/cyclin D1),IC50 (MDA-MB-435),IC50 (PC-3),IC50 (cdk1/cyclin B),IC50 (cdk2/cyclin E),Compound
699 nM,4.7 µM,4.79 µM,197 nM,61 nM,"CCNC(=O)N1CCC(Nc2nc(N[C@H]3CC[C@H](N)CC3)nc3c2ncn3C2CCCC2)CC1 [compound 148, trans-4-[2-(4-Amino-cyclohexylamino)-9-cyclopentyl-9H-purin-6-ylamino]-piperidine-1-carboxylic acid ethylamide dihydrochloride]"
753 nM,0.3 µM,0.38 µM,17 nM,42 nM,"N[C@H]1CC[C@H](Nc2nc(NC3CCN(C(=O)Nc4cccc(F)c4)CC3)c3ncn(C4CCCC4)c3n2)CC1 [compound 152, trans-4-[2-(4-Amino-cyclohexylamino)-9-cyclopentyl-9H-purin-6-ylamino]-piperidine-1-carboxylic acid (3-fluoro-phenyl)-amide dihydrochloride]"
482 nM,0.33 µM,0.44 µM,20 nM,43 nM,"COc1cccc(NC(=O)N2CCC(Nc3nc(N[C@H]4CC[C@H](N)CC4)nc4c3ncn4C3CCCC3)CC2)c1 [compound 155, trans-4-[2-(4-Amino-cyclohexylamino)-9-cyclopentyl-9H-purin-6-ylamino]-piperidine-1-carboxylic acid (3-methoxy-phenyl)-amide dihydrochloride]"
2040 nM,2.54 µM,3.34 µM,310 nM,32 nM,"CC(C)NC(=O)N1CCC(Nc2nc(N[C@H]3CC[C@H](N)CC3)nc3c2ncn3C2CCCC2)CC1 [compound 157, trans-4-[2-(4-Amino-cyclohexylamino)-9-cyclopentyl-9H-purin-6-ylamino]-piperidine-1-carboxylic acid isopropylamide dihydrochloride]"
825 nM,0.29 µM,0.38 µM,82 nM,87 nM,"N[C@H]1CC[C@H](Nc2nc(NC3CCN(C(=O)Nc4ccccc4C(F)(F)F)CC3)c3ncn(C4CCCC4)c3n2)CC1 [compound 158, trans-4-[2-(4-Amino-cyclohexylamino)-9-cyclopentyl-9H-purin-6-ylamino]-piperidine-1-carboxylic acid (2-trifluoromethyl-phenyl)-amide dihydrochloride]"
357 nM,1.36 µM,1.69 µM,85 nM,94 nM,"C[C@@H](NC(=O)N1CCC(Nc2nc(N[C@H]3CC[C@H](N)CC3)nc3c2ncn3C2CCCC2)CC1)c1ccccc1 [compound 160, trans-4-[2-(4-Amino-cyclohexylamino)-9-cyclopentyl-9H-purin-6-ylamino]-piperidine-1-carboxylic acid ((R)-1-phenyl-ethyl)-amide dihydrochloride]"
601 nM,1.01 µM,0.96 µM,56 nM,78 nM,"C[C@H](NC(=O)N1CCC(Nc2nc(N[C@H]3CC[C@H](N)CC3)nc3c2ncn3C2CCCC2)CC1)c1ccccc1 [compound 161, trans-4-[2-(4-Amino-cyclohexylamino)-9-cyclopentyl-9H-purin-6-ylamino]-piperidine-1-carboxylic acid ((S)-1-phenyl-ethyl)-amide dihydrochloride]"
829 nM,1.16 µM,1.04 µM,23 nM,62 nM,"N[C@H]1CC[C@H](Nc2nc(NC3CCN(C(=O)NC(=O)c4ccccc4)CC3)c3ncn(C4CCCC4)c3n2)CC1 [compound 172, trans-N-(1-{4-[2-(4-Amino-cyclohexylamino)-9-cyclopentyl-9H-purin-6-ylamino]-piperidin-1-yl}-methanoyl)-benzamide dihydrochloride]"
